Here are results for 1 substance from patent US10093654B2, “Therapeutically active compounds and their methods of use” (Agios Pharmaceuticals, Inc., priority 2013, dated 2018).

Some results are limits rather than exact numbers.

One series has as its system Caco-2 cells. The experiment in a line: Caco-2 cell assay. It is filed as in vitro ADME.
In series [1] the test system is advanced hematologic malignancies that harbor an IDH2 mutation. The series is described as follows: Phase 1 clinical study, clinical activity (response to treatment). It counts as in vivo, human. As for the experimental part: Subjects will have the extent of their disease assessed, including bone marrow biopsies and/or aspirates and peripheral blood, at screening, on Day 15, Day 29 and Day 57, and every 56 days thereafter while on study drug treatment, independent of dose delays and/or dose interruptions, and/or at any time when progression of disease is suspected. Response to treatment is determined by the Investigators based on modified International Working Group (IWG) response criteria for acute myelogenous leukemia (AML).
Serial blood and bone marrow sampling is evaluated during the clinical study to determine response to treatment based on modified IWG response criteria in AML.
Disease response to treatment is assessed through the evaluation of bone marrow aspirates and biopsies, along with complete blood counts and examination of peripheral blood films. Subjects have the extent of their disease assessed and recorded at screening, on Days 15, 29, and 57, every 56 days thereafter while on study drug treatment, independent of dose-delays and/or dose interruptions, and/or at any time when progression of disease is suspected. An assessment also is conducted at the End of Treatment visit for subjects who discontinue the study due to reasons other than disease progression.
Bone marrow aspirates and biopsies are to be obtained at screening, Day 15, Day 29, Day 57, every 56 days thereafter independent of dose delays and/or interruptions, at any time when progression of disease is suspected, and at the End of Treatment visit. Bone marrow aspirates and core sampling should be performed according to standard of care and analyzed at the local site's laboratory in accordance with the International Council for Standardization in Hematology (ICSH) Guidelines (Lee S H, et al. Int J Lab Hematol. 2008; 30(5):349-64). Bone marrow core biopsies and aspirate are to be evaluated for morphology, flow cytometry, and for karyotype to assess potential clinical activity. Aliquots of the bone marrow and/or peripheral blood blast cells also are evaluated at central laboratories for 2-HG levels, gene expression profiles, histone and DNA methylation patterns, and metabolomic profiling. Peripheral blood for the evaluation of leukemic blast cells is to be obtained at screening, Day 15, Day 29, Day 57, every 56 days thereafter independent of dose delays and/or interruptions, at any time when progression of disease is suspected, and at the End of Treatment visit. Cell counts and flow cytometry are used to assess the state of differentiation of blast cells collected from bone marrow and peripheral blood. Side scatter also is analyzed to determine the complexity of the blast cells in response to compound 1.
The following criteria outlined in Table 5 and Table 6 are used to assess response to treatment.

With “2-Methyl-1-[(4-[6-(trifluoromethyl)pyridin-2-yl]-6-{[2-(trifluoromethyl)pyridin-4-yl]amino}-1,3,5-triazin-2-yl)amino]propan-2-ol methanesulfonate [compound 1]”, the “permeability Papp” value in the series on Caco-2 cells is more than 17.9 ×10⁻⁶ cm/s. The “substrate for human P-gp or BCRP in vitro” value in the series on Caco-2 cells is “does not appear to be a substrate”. Further, the “Response (Cycle)” value in series [1] (Table 4, Cohort 1, 30 mg orally twice daily, per AML patient) is recorded as “CRp”; in series [1] (Table 4, Cohort 2, 50 mg orally twice daily, per AML patient) it was “CRp”; in series [1] (Table 7, Cohort 1, 30 mg orally twice daily, per patient), “CRp”; in series [1] (Table 7, Cohort 2, 50 mg orally twice daily, per patient), “Cri”; in series [1] (Table 7, Cohort 5, 100 mg orally twice daily, per patient) it was “CRp”. In addition, in series [1] (by cycle 1 day 15), the neutrophil counts result was “increase”. Also, the “white blood cell counts and neutrophil counts” value in series [1] (by cycle 2 day 15 in patients with a response) was “in normal range”. The “patients with progressive disease” value in series [1] (of a total 35 patients) was determined as 6. Besides, the “patients with stable disease” value in series [1] (of a total 35 patients) came out at 5.
